Tested on: Wnt pathway (TCF-dependent transcription in HEK293 luciferase reporter cell line with ER-DSH construct)
Assay: Cellular assay for Wnt pathway activity (luciferase reporter)
Type: cell-based
Conditions: Homo sapiens; Wnt pathway inhibition, HEK293 luciferase reporter cells (ER-DSH, TCF promoter), 24 hours incubation, estrogen-induced
Method in brief: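 Luminescent luciferase read-out after 24 h compound exposure at 1 nM to 30 μM, with TCF-driven transcription switched on by estrogen addition. IC50 values come from curve fits of data normalized against the vehicle-only control.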

| SMILES | IC50 [µM] |
| --- | --- |
| CSc1cccc(Oc2cncc(N(C)CCN(C)C(=O)C(F)F)n2)c1 [Compound 75, 2,2-Difluoro-N-methyl-N-(2-{methyl-[6-(3-methyl-sulfanyl-phenoxy)-pyrazin-2-yl]-amino}-ethyl)-acetamide] | 1 to 10 |
| CCN(CCSc1cncc(Oc2ccc(-c3ccc(C)cn3)cc2)n1)C(C)=O [Compound 17, N-Ethyl-N-(2-{6-[4-(5-methyl-pyridin-2-yl)-phenoxy]-pyrazin-2-ylsulfanyl}-ethyl)-acetamide] | < 0.2 |
| CC(=O)Nc1ccc(Oc2cncc(N(C)CCN(C)C(C)=O)n2)cc1 [Compound 94, N-(2-{[6-(4-Acetylamino-phenoxy)-pyrazin-2-yl]-methyl-amino}-ethyl)-N-methyl-acetamide] | 0.2 to 1 |
| CC(=O)N(C)CCN(C)c1cncc(Oc2ccc(-c3ccc(CCN)cc3)cc2)n1 [Compound 251, N-[2-({6-[4′-(2-Amino-ethyl)-biphenyl-4-yloxy]-pyrazin-2-yl}-methyl-amino)-ethyl]-N-methyl-acetamide] | < 0.2 |
| CC(=O)Nc1cccc(-c2ccc(Oc3cncc(CCCN(C)C(C)=O)n3)cc2)n1 [Compound 218, N-(3-{6-[4-(6-Acetylamino-pyridin-2-yl)-phenoxy]-pyrazin-2-yl}-propyl)-N-methyl-acetamide] | 0.2 to 1 |
| CC(=O)N(C)CCN(C)c1cncc(Oc2ccc(F)cc2)n1 [Compound 4, N-(2-{[6-(4-Fluoro-phenoxy)-pyrazin-2-yl]-methyl-amino}-ethyl)-N-methyl-acetamide] | 0.2 to 1 |
| CNC(=O)CCCN(C)c1cncc(Oc2ccc(F)cc2)n1 [Compound 189, 4-{[6-(4-Fluoro-phenoxy)-pyrazin-2-yl]-methyl-amino}-N-methyl-butyramide] | 1 to 10 |
| CC(=O)N(C)CCN(C)c1cncc(Oc2ccc(-c3cc(C#N)ccn3)cc2)n1 [Compound 199, N-[2-({6-[4-(4-Cyano-pyridin-2-yl)-phenoxy]-pyrazin-2-yl}-methyl-amino)-ethyl]-N-methyl-acetamide] | < 0.2 |
| CC(=O)N(C)CCN(C)c1cncc(Oc2ccc(C)cc2)n1 [Compound 52, N-Methyl-N-{2-[methyl-(6-p-tolyloxy-pyrazin-2-yl)-amino]-ethyl}-acetamide] | < 0.2 |
| CNCCN(C)c1cncc(Oc2ccc(-c3cccc(N4CCN(C)CC4)n3)cc2)n1 [Compound 134, N,N′-Dimethyl-N-(6-{4-[6-(4-methyl-piperazin-1-yl)-pyridin-2-yl]-phenoxy}-pyrazin-2-yl)-ethane-1,2-diamine] | 1 to 10 |
| CC(=O)N(C)CCN(C)c1cncc(Oc2ccc(-c3cnc4sc(=O)[nH]c4c3)cc2)n1 [Compound 186, N-Methyl-N-[2-(methyl-{6-[4-(2-oxo-1,2-dihydro-thiazolo[5,4-b]pyridin-6-yl)-phenoxy]-pyrazin-2-yl}-amino)-ethyl]-acetamide] | < 0.2 |
| O=C1CCCCN1CCNc1cncc(Oc2ccc(N3CCOCC3)cc2)n1 [Compound 307, 1-{2-[6-(4-Morpholin-4-yl-phenoxy)-pyrazin-2-ylamino]-ethyl}-piperidin-2-one] | 0.2 to 1 |
| CC(=O)N(C)CCN(C)c1cncc(Oc2ccc(-c3ccc(F)cn3)cc2)n1 [Compound 152, N-[2-({6-[4-(5-Fluoro-pyridin-2-yl)-phenoxy]-pyrazin-2-yl}-methyl-amino)-ethyl]-N-methyl-acetamide] | < 0.2 |
| CC(=O)N(C)CCNc1cncc(Oc2ccc(-c3ccc(S(N)(=O)=O)cn3)cc2)n1 [Compound 294, N-Methyl-N-(2-{6-[4-(5-sulfamoyl-pyridin-2-yl)-phenoxy]-pyrazin-2-ylamino}-ethyl)-acetamide] | 1 to 10 |
| CC(=O)N(C)CCN(C)c1cncc(Oc2ccc(C#N)cc2)n1 [Compound 122, N-(2-{[6-(4-Cyano-phenoxy)-pyrazin-2-yl]-methyl-amino}-ethyl)-N-methyl-acetamide] | < 0.2 |
| CCc1ccc(Oc2cncc(N(C)CCN(C)C(C)=O)n2)cc1 [Compound 97, N-(2-{[6-(4-Ethyl-phenoxy)-pyrazin-2-yl]-methyl-amino}-ethyl)-N-methyl-acetamide] | < 0.2 |
| CC(=O)N(C)CCCc1cncc(Oc2ccc(-c3ccc(N4CCOCC4)nc3)cc2)n1 [Compound 216, N-Methyl-N-(3-{6-[4-(6-morpholin-4-yl-pyridin-3-yl)-phenoxy]-pyrazin-2-yl}-propyl)-acetamide] | 0.2 to 1 |
| CC(=O)N(C)CCN(C)c1cncc(Oc2ccc(-c3cnc4ccccc4c3)cc2)n1 [Compound 207, N-Methyl-N-(2-{methyl-[6-(4-quinolin-3-yl-phenoxy)-pyrazin-2-yl]-amino}-ethyl)-acetamide] | 0.2 to 1 |
| CC(=O)Nc1ccc(-c2ccc(Oc3cncc(N(C)CCN(C)C(C)=O)n3)c(F)c2)cn1 [Compound 225, N-[2-({6-[4-(6-Acetylamino-pyridin-3-yl)-2-fluoro-phenoxy]-pyrazin-2-yl}-methyl-amino)-ethyl]-N-methyl-acetamide] | < 0.2 |
| CS(=O)(=O)c1cncc(-c2ccc(Oc3cncc(NCCC(N)=O)n3)cc2)c1 [Compound 300, 3-{6-[4-(5-Methane-sulfonyl-pyridin-3-yl)-phenoxy]-pyrazin-2-ylamino}-propionamide] | ≥ 10 |
| CC(=O)N(C)CCN(C)c1cncc(Oc2ccc(-c3ccc(C)cn3)cc2)n1 [Compound 93, N-Methyl-N-[2-(methyl-{6-[4-(5-methyl-pyridin-2-yl)-phenoxy]-pyrazin-2-yl}-amino)-ethyl]-acetamide] | < 0.2 |
| NC(=O)CCNc1cncc(Oc2ccc(-c3ccc(CO)nc3)cc2)n1 [Compound 299, 3-{6-[4-(6-Hydroxy-methyl-pyridin-3-yl)-phenoxy]-pyrazin-2-ylamino}-propionamide] | 1 to 10 |
| CC(=O)N(C)CCN(C)c1cncc(Oc2ccc(C)nc2)n1 [Compound 246, N-Methyl-N-(2-{methyl-[6-(6-methyl-pyridin-3-yloxy)-pyrazin-2-yl]-amino}-ethyl)-acetamide] | 1 to 10 |
| O=C1[C@@H]2CC[C@@H](C2)N1CCCc1cncc(Oc2ccc(F)cc2)n1 [Compound 303, (1S,4R)-2-{3-[6-(4-Fluoro-phenoxy)-pyrazin-2-yl]-propyl}-2-aza-bicyclo[2.2.1]heptan-3-one] | 0.2 to 1 |
| CNCCN(C)c1cncc(OC2CCCCC2)n1 [Compound 46, N-(6-Cyclo-hexyloxy-pyrazin-2-yl)-N,N′-dimethyl-ethane-1,2-diamine] | 0.2 to 1 |
| CC(=O)N(C)CCCc1cncc(Oc2ccc(-c3ccc(N)cn3)cc2F)n1 [Compound 282, N-(3-{6-[4-(5-Amino-pyridin-2-yl)-2-fluoro-phenoxy]-pyrazin-2-yl}-propyl)-N-methyl-acetamide] | < 0.2 |
| CC(=O)N(C)CCNc1cncc(Oc2ccc(-c3cnc(N)cn3)cc2)n1 [Compound 241, N-(2-{6-[4-(5-Amino-pyrazin-2-yl)-phenoxy]-pyrazin-2-ylamino}-ethyl)-N-methyl-acetamide] | 1 to 10 |
| CN(CCC(N)=O)c1cncc(Oc2ccc(F)cc2)n1 [Compound 156, 3-{[6-(4-Fluoro-phenoxy)-pyrazin-2-yl]-methyl-amino}-propion-amide] | 1 to 10 |
| CC(=O)N(C)CCOc1cncc(Oc2ccc(F)cc2)n1 [Compound 188, N-{2-[6-(4-Fluoro-phenoxy)-pyrazin-2-yloxy]-ethyl}-N-methyl-acetamide] | 1 to 10 |

From patent US9493444B2 (Merck Patent GmbH, priority 2012, dated 2016)
